# Assay results reported in patent US6525001B1, “Substituted pyrimidine and pyridine herbicides” (Mid-American Commercialization Corporation, priority 1997, dated 2003).
# How the values were obtained:
# Format in all cases: in vivo
# Design in all cases: key: 0 is no effect; 10 is complete control
# [1] = system: broadleaf signalgrass (Brachiaria decumbens); assay: Test B pre-/postemergence
# Outline: (§1)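 Scored visually 0 (none) to 10 (complete control) against untreated plants after twelve to sixteen greenhouse days. Test chemicals, formulated in surfactant-containing non-phytotoxic solvent, applied to soil after planting and, separately, onto 1- to 4-leaf (2–18 cm) plants.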
# rape (Brassica napus) = assay: Test B pre-/postemergence
# Outline: as §1
# [2] = system: velvetleaf (Abutilon theophrasti); assay: Test B pre-/postemergence
# Outline: as §1
# corn (Zea mays) = assay: Test B pre-/postemergence
# Outline: as §1
# [3] = system: giant foxtail (Setaria faberii); assay: Test B pre-/postemergence
# Outline: as §1
# [4] = system: cocklebur (Xanthium strumarium); assay: Test B pre-/postemergence
# Outline: as §1
# [5] = system: pigweed (Amaranthus retroflexus); assay: Test B pre-/postemergence
# Outline: as §1
# [6] = system: momingglory (Ipomoea hederacea); assay: Test B pre-/postemergence
# Outline: as §1
# [7] = system: bedstraw (Galium aparine); assay: Test B pre-/postemergence
# Outline: as §1
# [8] = system: sugar beet (Beta vulgaris); assay: Test B pre-/postemergence
# Outline: as §1
# [9] = system: wheat (Triticum aestivum); assay: Test B pre-/postemergence
# Outline: as §1
# [10] = system: duck salad (Heteranthera limosa); assay: Test B flood test; details: for Plant response rating, Ducksalad: Postemergence (flood test species)
# Outline: (§2)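 Flood test on plants grown to the 2-leaf stage; treated plants kept in greenhouse twelve to sixteen days, then visually rated against controls on a 0 (no effect) to 10 (complete control) scale.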
# [11] = system: bamyardgrass (Echinochloa crus-galli); assay: Test B flood test; details: for Plant response rating, Barnyardgrass: Postemergence (flood test species)
# Outline: as §2
# [12] = system: smallflower flatsedge (Cyperus difformis); assay: Test B flood test; details: for Plant response rating, S. Flatsedge: Postemergence (flood test species)
# Outline: as §2
# rice (Oryza sativa) = assay: Test B flood test; details: for Plant response rating, Rice: Postemergence (flood test species)
# Outline: as §2
# [13] = Preemergence, Rate 62 g/ha, scale of 0 to 10
# [14] = Rate 62 g/ha, Postemergence (flood test)
# [15] = Rate 125 g/ha, Postemergence section (flood test species)
compound,measurement,setting,value
Cc1cnc(-n2cnc(C(F)(F)F)c2)nc1C(=O)c1cccc(C(F)(F)F)c1 [Compound 61],B. signalgrass plant response rating,"[1]; Rate 62 g/ha, Postemergence",3
same,B. signalgrass plant response rating,"[1]; Rate 62 g/ha, Preemergence",5
same,B. signalgrass plant response rating,"[1]; Rate 125 g/ha, Postemergence",4
same,"Plant response rating, B. signalgrass","[1]; Rate 125 g/ha, Preemergence",7
same,"Plant response rating, B. signalgrass","[1]; Rate 250 g/ha, Postemergence",4
same,"Plant response rating, B. signalgrass","[1]; Rate 250 g/ha, Preemergence",8
same,"Plant response rating, B. signalgrass","[1]; Rate 500 g/ha, Postemergence",5
same,"Plant response rating, B. signalgrass","[1]; Rate 500 g/ha, Preemergence",9
same,"Plant response rating, Rape",rape (Brassica napus); [13],4
same,Rape plant response rating,"rape (Brassica napus); Rate 62 g/ha, Postemergence",6
same,Rape plant response rating,"rape (Brassica napus); Rate 125 g/ha, Postemergence",7
same,"Plant response rating, Rape","rape (Brassica napus); Rate 125 g/ha, Preemergence",8
same,"Plant response rating, Rape","rape (Brassica napus); Rate 250 g/ha, Postemergence",8
same,"Plant response rating, Rape","rape (Brassica napus); Rate 250 g/ha, Preemergence",9
same,"Plant response rating, Rape","rape (Brassica napus); Rate 500 g/ha, Postemergence",9
same,"Plant response rating, Rape","rape (Brassica napus); Rate 500 g/ha, Preemergence",9
same,"Plant response rating, Velvetleaf",[2]; [13],9
same,Velvetleaf plant response rating,"[2]; Rate 62 g/ha, Postemergence",7
same,Velvetleaf plant response rating,"[2]; Rate 125 g/ha, Postemergence",7
same,"Plant response rating, Velvetleaf","[2]; Rate 125 g/ha, Preemergence",10
same,"Plant response rating, Velvetleaf","[2]; Rate 250 g/ha, Postemergence",8
same,"Plant response rating, Velvetleaf","[2]; Rate 250 g/ha, Preemergence",10
same,"Plant response rating, Velvetleaf","[2]; Rate 500 g/ha, Postemergence",8
same,"Plant response rating, Velvetleaf","[2]; Rate 500 g/ha, Preemergence",10
same,"Plant response rating, Corn",corn (Zea mays); [13],1
same,Corn plant response rating,"corn (Zea mays); Rate 62 g/ha, Postemergence",2
same,Corn plant response rating,"corn (Zea mays); Rate 125 g/ha, Postemergence",3
same,"Plant response rating, Corn","corn (Zea mays); Rate 125 g/ha, Preemergence",1
same,"Plant response rating, Corn","corn (Zea mays); Rate 250 g/ha, Postemergence",3
same,"Plant response rating, Corn","corn (Zea mays); Rate 250 g/ha, Preemergence",1
same,"Plant response rating, Corn","corn (Zea mays); Rate 500 g/ha, Postemergence",4
same,"Plant response rating, Corn","corn (Zea mays); Rate 500 g/ha, Preemergence",2
same,"Plant response rating, Giant foxtail",[3]; [13],8
same,Giant foxtail plant response rating,"[3]; Rate 62 g/ha, Postemergence",2
same,Giant foxtail plant response rating,"[3]; Rate 125 g/ha, Postemergence",4
same,"Plant response rating, Giant foxtail","[3]; Rate 125 g/ha, Preemergence",9
same,"Plant response rating, Giant foxtail","[3]; Rate 250 g/ha, Postemergence",5
same,"Plant response rating, Giant foxtail","[3]; Rate 250 g/ha, Preemergence",10
same,"Plant response rating, Giant foxtail","[3]; Rate 500 g/ha, Postemergence",9
same,"Plant response rating, Giant foxtail","[3]; Rate 500 g/ha, Preemergence",10
same,"Plant response rating, Cocklebur",[4]; [13],0
same,Cocklebur plant response rating,"[4]; Rate 62 g/ha, Postemergence",3
same,Cocklebur plant response rating,"[4]; Rate 125 g/ha, Postemergence",7
same,"Plant response rating, Cocklebur","[4]; Rate 125 g/ha, Preemergence",0
same,"Plant response rating, Cocklebur","[4]; Rate 250 g/ha, Postemergence",8
same,"Plant response rating, Cocklebur","[4]; Rate 250 g/ha, Preemergence",1
same,"Plant response rating, Cocklebur","[4]; Rate 500 g/ha, Postemergence",8
same,"Plant response rating, Cocklebur","[4]; Rate 500 g/ha, Preemergence",10
same,"Plant response rating, Redroot pigweed",[5]; [13],8
same,Redroot pigweed plant response rating,"[5]; Rate 62 g/ha, Postemergence",8
same,Redroot pigweed plant response rating,"[5]; Rate 125 g/ha, Postemergence",9
same,"Plant response rating, Redroot pigweed","[5]; Rate 125 g/ha, Preemergence",9
same,"Plant response rating, Redroot pigweed","[5]; Rate 250 g/ha, Postemergence",9
same,"Plant response rating, Redroot pigweed","[5]; Rate 250 g/ha, Preemergence",9
same,"Plant response rating, Redroot pigweed","[5]; Rate 500 g/ha, Postemergence",9
same,"Plant response rating, Redroot pigweed","[5]; Rate 500 g/ha, Preemergence",10
same,Morningglory plant response rating,"[6]; Rate 62 g/ha, Postemergence",5
same,Morningglory plant response rating,"[6]; Rate 125 g/ha, Postemergence",9
same,"Plant response rating, Morningglory","[6]; Rate 125 g/ha, Preemergence",3
same,"Plant response rating, Morningglory","[6]; Rate 250 g/ha, Preemergence",10
same,"Plant response rating, Morningglory","[6]; Rate 500 g/ha, Postemergence",9
same,"Plant response rating, Morningglory","[6]; Rate 500 g/ha, Preemergence",10
same,"Plant response rating, Bedstraw",[7]; [13],3
same,Bedstraw plant response rating,"[7]; Rate 62 g/ha, Postemergence",8
same,Bedstraw plant response rating,"[7]; Rate 125 g/ha, Postemergence",8
same,"Plant response rating, Bedstraw","[7]; Rate 125 g/ha, Preemergence",4
same,"Plant response rating, Bedstraw","[7]; Rate 250 g/ha, Postemergence",9
same,"Plant response rating, Bedstraw","[7]; Rate 250 g/ha, Preemergence",6
same,"Plant response rating, Bedstraw","[7]; Rate 500 g/ha, Postemergence",9
same,"Plant response rating, Bedstraw","[7]; Rate 500 g/ha, Preemergence",9
same,"Plant response rating, Sugarbeets",[8]; [13],10
same,Sugarbeets plant response rating,"[8]; Rate 62 g/ha, Postemergence",9
same,Sugarbeets plant response rating,"[8]; Rate 125 g/ha, Postemergence",10
same,"Plant response rating, Sugarbeets","[8]; Rate 125 g/ha, Preemergence",10
same,"Plant response rating, Sugarbeets","[8]; Rate 250 g/ha, Postemergence",10
same,"Plant response rating, Sugarbeets","[8]; Rate 250 g/ha, Preemergence",10
same,"Plant response rating, Sugarbeets","[8]; Rate 500 g/ha, Postemergence",10
same,"Plant response rating, Sugarbeets","[8]; Rate 500 g/ha, Preemergence",10
same,"Plant response rating, Wheat",[9]; [13],1
same,Wheat plant response rating,"[9]; Rate 62 g/ha, Postemergence",3
same,Wheat plant response rating,"[9]; Rate 125 g/ha, Postemergence",3
same,"Plant response rating, Wheat","[9]; Rate 125 g/ha, Preemergence",3
same,"Plant response rating, Wheat","[9]; Rate 250 g/ha, Postemergence",3
same,"Plant response rating, Wheat","[9]; Rate 250 g/ha, Preemergence",4
same,"Plant response rating, Wheat","[9]; Rate 500 g/ha, Postemergence",4
same,"Plant response rating, Wheat","[9]; Rate 500 g/ha, Preemergence",4
same,Ducksalad plant response rating,[10]; [14],0
same,Ducksalad plant response rating,[10]; [15],1
same,"Plant response rating, Ducksalad",[10]; Rate 250 g/ha,3
same,"Plant response rating, Ducksalad",[10]; Rate 500 g/ha,5
same,Barnyardgrass plant response rating,[11]; [14],2
same,Barnyardgrass plant response rating,[11]; [15],3
same,"Plant response rating, Barnyardgrass",[11]; Rate 250 g/ha,3
same,"Plant response rating, Barnyardgrass",[11]; Rate 500 g/ha,4
same,S. Flatsedge plant response rating,[12]; [14],3
same,S. Flatsedge plant response rating,[12]; [15],7
same,"Plant response rating, S. Flatsedge",[12]; Rate 250 g/ha,8
same,"Plant response rating, S. Flatsedge",[12]; Rate 500 g/ha,9
same,Rice plant response rating,rice (Oryza sativa); [14],0
same,Rice plant response rating,rice (Oryza sativa); [15],0
same,"Plant response rating, Rice",rice (Oryza sativa); Rate 250 g/ha,2
same,"Plant response rating, Rice",rice (Oryza sativa); Rate 500 g/ha,2
